molecular target: SARS-CoV-2 3CL-protease (Severe acute respiratory syndrome coronavirus 2, UniProt P0DTD1); test: SARS-CoV-2 3C-Like (3CL) Protease Fluorescence Assay (FRET); assay type: biochemical; details: IC50, SARS-CoV-2 3CL-protease 10 nM, test compounds 0-10 μM, duplicate

`CC(C)C[C@@H](C(=O)N1C[C@]2(C[C@H]1C#N)C(=O)Nc1ccccc12)N(C)C(=O)[C@H](C)NC(=O)C(F)(F)C(F)(F)C(F)(F)C(F)(F)F` [Example 144] and `CC[C@H](NC(=O)C(F)(F)C(F)(F)C(F)(F)F)C(=O)N(C)[C@@H](CC(C)C)C(=O)N1C[C@]2(C[C@H]1C#N)C(=O)Nc1ccccc12` [Example 201] cannot be ordered by IC50: under 100 nM for the first, under 100 nM for the second.

`C[C@H](NC(=O)C(F)(F)C(F)(F)C(F)(F)F)C(=O)N(C)[C@@H](C)C(=O)N1C[C@]2(C[C@H]1C#N)C(=O)Nc1ccccc12` [Example 198] and `C[C@H](NC(=O)C(F)(F)C(F)(F)C(F)(F)F)C(=O)N(C)[C@@H](CC1CC1)C(=O)N1C[C@]2(C[C@H]1C#N)C(=O)Nc1ccccc12` [Example 206] cannot be ordered by IC50: under 100 nM for the first, under 100 nM for the second.

same assay, conditions: SARS-CoV-2 3CL-protease 10 nM, test compounds 0-10 μM, duplicate, read-out: IC50

`CC(C)C[C@@H](C(=O)N1C[C@]2(C[C@H]1C#N)C(=O)Nc1ccccc12)N(C)C(=O)[C@H](C)NC(=O)C1(F)CC2(CCC2)C1` [Example 141] and `CC(C)C[C@@H](C(=O)N1C[C@]2(C[C@H]1C#N)C(=O)Nc1ccccc12)N(C)C(=O)[C@H](C)NC(=O)C1(F)CCCC1` [Example 143] cannot be ordered by IC50: under 100 nM for the first, under 100 nM for the second.

`CC(C)C[C@@H](C(=O)N1C[C@]2(C[C@H]1C#N)C(=O)Nc1ccccc12)N(C)C(=O)[C@H](C)NC(=O)C(F)(F)CC(C)C` [Example 142] and `CC[C@H](NC(=O)C(F)(F)F)C(=O)N(C)[C@@H](CC(C)C)C(=O)N1C[C@]2(C[C@H]1C#N)C(=O)Nc1ccccc12` [Example 199] cannot be ordered by IC50: under 100 nM for the first, under 100 nM for the second.

`CC(C)C[C@@H](C(=O)N1C[C@]2(C[C@H]1C#N)C(=O)Nc1ccccc12)N(C)C(=O)[C@H](C)NC(=O)c1ccc(F)cc1C(F)(F)F` [Example 145] and `CC[C@H](NC(=O)c1ccc(F)cc1C(F)(F)F)C(=O)N(C)[C@@H](CC(C)C)C(=O)N1C[C@]2(C[C@H]1C#N)C(=O)Nc1ccccc12` [Example 194] cannot be ordered by IC50: under 100 nM for the first, under 100 nM for the second.

`CC(C)C[C@@H](C(=O)N1C[C@]2(C[C@H]1C#N)C(=O)Nc1ccccc12)N(C)C(=O)[C@H](C)NC(=O)c1cccc(-c2ccc(F)cc2F)c1` [Example 146] and `CC(C)C[C@@H](C(=O)N1C[C@]2(C[C@H]1C#N)C(=O)Nc1ccccc12)N(C)C(=O)[C@H](C)NC(=O)c1cccc(-c2ccc(C(F)(F)F)cc2)c1` [Example 147] cannot be ordered by IC50: under 100 nM for the first, under 100 nM for the second.

`C[C@H](NC(=O)C(F)(F)C(F)(F)F)C(=O)N(C)[C@@H](CC1CC1)C(=O)N1C[C@]2(C[C@H]1C#N)C(=O)Nc1ccc(Br)cc12` [Example 167] and `C[C@H](NC(=O)C(F)(F)C(F)(F)F)C(=O)N(C)[C@@H](CC1CC1)C(=O)N1C[C@]2(C[C@H]1C#N)C(=O)Nc1ccc(Cl)cc12` [Example 170] cannot be ordered by IC50: under 100 nM for the first, under 100 nM for the second.

`CC(C)C[C@@H](C(=O)N1C[C@]2(C[C@H]1C#N)C(=O)Nc1ccc(Cl)cc12)N(C)C(=O)[C@H](C)NC(=O)C(F)(F)C(F)(F)F` [Example 168] and `CC(C)C[C@@H](C(=O)N1C[C@]2(C[C@H]1C#N)C(=O)Nc1ccc(Br)cc12)N(C)C(=O)[C@H](C)NC(=O)C(F)(F)C(F)(F)F` [Example 169] cannot be ordered by IC50: under 100 nM for the first, under 100 nM for the second.

`C[C@H](NC(=O)C(F)(F)C(F)(F)F)C(=O)N(C)[C@@H](CC(C)(C)C)C(=O)N1C[C@]2(C[C@H]1C#N)C(=O)Nc1ccc(Br)cc12` [Example 171] and `C[C@H](NC(=O)C(F)(F)C(F)(F)F)C(=O)N(C)[C@@H](CC(C)(C)C)C(=O)N1C[C@]2(C[C@H]1C#N)C(=O)Nc1ccc(Cl)cc12` [Example 174] cannot be ordered by IC50: under 100 nM for the first, under 100 nM for the second.

`C[C@H](NC(=O)C(F)(F)C(F)(F)F)C(=O)N(C)[C@@H](CC(C)(C)C)C(=O)N1C[C@]2(C[C@H]1C#N)C(=O)N(Cl)c1ccc(Cl)cc12` [Example 172] and `C[C@H](NC(=O)C(F)(F)C(F)(F)F)C(=O)N(C)[C@@H](CC(C)(C)C)C(=O)N1C[C@]2(C[C@H]1C#N)C(=O)Nc1c(Cl)cc(Cl)cc12` [Example 173] cannot be ordered by IC50: under 100 nM for the first, under 100 nM for the second.

First: CN(C(=O)c1cc2c([nH]1)CN(C(=O)C(F)(F)F)CC2)[C@@H](CC(C)(C)C)C(=O)N1C[C@]2(C[C@H]1C#N)C(=O)Nc1ccccc12 [Example 175]
Second: CC(C)N1CCc2cc(C(=O)N(C)[C@@H](CC(C)(C)C)C(=O)N3C[C@]4(C[C@H]3C#N)C(=O)Nc3ccccc34)[nH]c2C1 [Example 176]
The IC50 of the first is higher: 100 to 1000 nM for the first, under 100 nM for the second. The second is the more potent here.

Compared with `CN(C(=O)[C@@H]1C[C@@H]2CCCC[C@@H]2N1C(=O)C(F)(F)F)[C@@H](CC(C)(C)C)C(=O)N1C[C@]2(C[C@H]1C#N)C(=O)Nc1ccccc12` [Example 177], `CC(C)N1[C@H](C(=O)N(C)[C@@H](CC(C)(C)C)C(=O)N2C[C@]3(C[C@H]2C#N)C(=O)Nc2ccccc23)C[C@@H]2CCCC[C@@H]21` [Example 180] is lower in IC50: 100 to 1000 nM for the first, under 100 nM for the second.

`CC(C)N1[C@H](C(=O)N(C)[C@@H](CC(C)(C)C)C(=O)N2C[C@]3(C[C@H]2C#N)C(=O)Nc2ccccc23)C[C@@H]2CCC[C@@H]21` [Example 178] and `CC(C)N1C[C@@H]2CCC[C@@H]2[C@H]1C(=O)N(C)[C@@H](CC(C)(C)C)C(=O)N1C[C@]2(C[C@H]1C#N)C(=O)Nc1ccccc12` [Example 181] cannot be ordered by IC50: under 100 nM for the first, under 100 nM for the second.

`CCN1C[C@H]2CCCC[C@H]2C[C@H]1C(=O)N(C)[C@@H](CC(C)(C)C)C(=O)N1C[C@]2(C[C@H]1C#N)C(=O)Nc1ccccc12` [Example 179] and `CC(C)N1c2ccccc2C[C@H]1C(=O)N(C)[C@@H](CC(C)(C)C)C(=O)N1C[C@]2(C[C@H]1C#N)C(=O)Nc1ccccc12` [Example 184] cannot be ordered by IC50: under 100 nM for the first, under 100 nM for the second.

First: CC(C)N1C[C@]2(C[C@H]1C(=O)N(C)[C@@H](CC(C)(C)C)C(=O)N1C[C@]3(C[C@H]1C#N)C(=O)Nc1ccccc13)C(=O)Nc1ccccc12 [Example 183]
Second: C[C@H](NC(=O)c1ccc(Cl)cc1)C(=O)N(C)[C@@H](CC(C)(C)C)C(=O)N1C[C@]2(C[C@H]1C#N)C(=O)Nc1ccccc12 [Example 211]
The IC50 of the first is higher: 100 to 1000 nM for the first, under 100 nM for the second.

`CC(C)C[C@@H](C(=O)N1C[C@]2(C[C@H]1C#N)C(=O)Nc1ccccc12)N(C)C(=O)[C@H](C)NC(=O)c1c(F)ccc2[nH]ccc12` [Example 185] and `CC(C)C[C@@H](C(=O)N1C[C@]2(C[C@H]1C#N)C(=O)Nc1ccccc12)N(C)C(=O)[C@H](C)NC(=O)c1cc2[nH]ccc2cc1F` [Example 186] cannot be ordered by IC50: under 100 nM for the first, under 100 nM for the second.

`CC(C)C[C@@H](C(=O)N1C[C@]2(C[C@H]1C#N)C(=O)Nc1ccccc12)N(C)C(=O)[C@H](C)NC(=O)c1c(F)ccc2ccoc12` [Example 187] and `CC(C)C[C@@H](C(=O)N1C[C@]2(C[C@H]1C#N)C(=O)Nc1ccccc12)N(C)C(=O)[C@H](C)NC(=O)c1cc2occc2cc1F` [Example 188] cannot be ordered by IC50: under 100 nM for the first, under 100 nM for the second.

`CC(C)C[C@@H](C(=O)N1C[C@]2(C[C@H]1C#N)C(=O)Nc1ccccc12)N(C)C(=O)[C@H](C)NC(=O)c1ccc2c(c1)OCC2` [Example 190] and `C[C@H](NC(=O)c1ccc(Cl)c(Cl)c1)C(=O)N(C)[C@@H](CC(C)(C)C)C(=O)N1C[C@]2(C[C@H]1C#N)C(=O)Nc1ccccc12` [Example 212] cannot be ordered by IC50: under 100 nM for the first, under 100 nM for the second.

`[2H]C([2H])([2H])N(C(=O)[C@H](C)NC(=O)C(F)(F)F)[C@@H](CCCC)C(=O)N1C[C@]2(C[C@H]1C#N)C(=O)Nc1ccccc12` [Example 191] and `[2H]C([2H])([2H])N(C(=O)[C@H](C)NC(=O)C(F)(F)C(F)(F)F)[C@@H](CCCC)C(=O)N1C[C@]2(C[C@H]1C#N)C(=O)Nc1ccccc12` [Example 192] cannot be ordered by IC50: under 100 nM for the first, under 100 nM for the second.

`CC[C@H](NC(=O)C(=O)Nc1c(F)cccc1C(F)(F)F)C(=O)N(C)[C@@H](CC(C)C)C(=O)N1C[C@]2(C[C@H]1C#N)C(=O)Nc1ccccc12` [Example 193] and `CC(C)C[C@@H](C(=O)N1C[C@]2(C[C@H]1C#N)C(=O)Nc1ccccc12)N(C)C(=O)[C@H](C)NC(=O)C(=O)Nc1c(F)cccc1C(F)(F)F` [Example 202] cannot be ordered by IC50: under 100 nM for the first, under 100 nM for the second.

`C[C@H](NC(=O)C1(F)C(F)(F)C1(F)F)C(=O)N(C)[C@@H](CC1CC1)C(=O)N1C[C@]2(C[C@H]1C#N)C(=O)Nc1ccccc12` [Example 195] and `C[C@H](NC(=O)C(F)(F)F)C(=O)N(C)[C@@H](CC1CC1)C(=O)N1C[C@]2(C[C@H]1C#N)C(=O)Nc1ccccc12` [Example 203] cannot be ordered by IC50: under 100 nM for the first, under 100 nM for the second.

`CC[C@H](NC(=O)C1(F)C(F)(F)C1(F)F)C(=O)N(C)[C@@H](CC(C)C)C(=O)N1C[C@]2(C[C@H]1C#N)C(=O)Nc1ccccc12` [Example 196] and `CC[C@H](NC(=O)C(F)(F)C(F)(F)F)C(=O)N(C)[C@@H](CC(C)C)C(=O)N1C[C@]2(C[C@H]1C#N)C(=O)Nc1ccccc12` [Example 200] cannot be ordered by IC50: under 100 nM for the first, under 100 nM for the second.

`CC(C)C[C@@H](C(=O)N1C[C@]2(C[C@H]1C#N)C(=O)Nc1ccccc12)N(C)C(=O)[C@H](C)NC(=O)C(F)(F)C1CCCC1` [Example 197] and `C[C@H](NC(=O)C(F)(F)C(F)(F)F)C(=O)N(C)[C@@H](CC1CC1)C(=O)N1C[C@]2(C[C@H]1C#N)C(=O)Nc1ccccc12` [Example 205] cannot be ordered by IC50: under 100 nM for the first, under 100 nM for the second.

`C[C@H](NC(=O)C(F)(F)F)C(=O)N(C)[C@@H](C)C(=O)N1C[C@]2(C[C@H]1C#N)C(=O)Nc1ccccc12` [Example 204] and `C[C@H](NC(=O)C(F)(F)C(F)(F)F)C(=O)N(C)[C@@H](C)C(=O)N1C[C@]2(C[C@H]1C#N)C(=O)Nc1ccccc12` [Example 207] cannot be ordered by IC50: under 100 nM for the first, under 100 nM for the second.

`C[C@H](NC(=O)c1cc2c(F)cc(F)c(F)c2[nH]1)C(=O)N(C)[C@@H](CC(C)(C)C)C(=O)N1C[C@]2(C[C@H]1C#N)C(=O)Nc1ccccc12` [Example 208] and `C[C@H](NC(=O)c1cc(OC(F)(F)F)c2ncccc2c1)C(=O)N(C)[C@@H](CC(C)(C)C)C(=O)N1C[C@]2(C[C@H]1C#N)C(=O)Nc1ccccc12` [Example 210] cannot be ordered by IC50: under 100 nM for the first, under 100 nM for the second.

`C[C@H](NC(=O)C(C)(C)C)C(=O)N(C)[C@@H](CC(C)(C)C)C(=O)N1C[C@]2(C[C@H]1C#N)C(=O)Nc1ccccc12` [Example 209] and `C[C@H](NC(=O)c1ccc(C(C)(C)C)cc1)C(=O)N(C)[C@@H](CC(C)(C)C)C(=O)N1C[C@]2(C[C@H]1C#N)C(=O)Nc1ccccc12` [Example 213] cannot be ordered by IC50: under 100 nM for the first, under 100 nM for the second.

From US20260138988A1, “Spiropyrrolidine Derived Antiviral Agents” (Enanta Pharmaceuticals, Inc., priority 2021, published 2026)
